The values below come from patent US4698352A, “4-oxo-1,4-dihydronicotinic acid derivatives, salts thereof, and antibacterial agents containing the same” (Toyama Chemical Co., Ltd., priority 1982, dated 1987).

Converted amounts (≈) assume the structure as drawn. Where two headings read alike, the source gives them in different places. Where only a bound is given, the exact number is not on record here.

Holding throughout (assay): Antibacterial activity (MIC), agar dilution
Holding throughout (assay type): cell-based

Experiment [1] has as its system Aci. antitratus A-6. Conditions: 20 h. The source says:
(§1) The amount of bacteria inoculated was 10^4 cells per plate (10^6 cells per ml).

The test system of experiment [2] is E. coli NIHJ JC-2. Conditions: Escherichia coli, NIHJJC2, 20 h.
Excerpt: as §1

In experiment [3] the test system is E. coli TK-111. The following applies: Escherichia coli, TK111, 20 h, E. coli TK-111; 10^6 cells per ml; 37° C., 20 hours; read-out: MIC.
Excerpt: as §1

Experiment [4] concerns Ent. cloacae IID977. Conditions: Enterobacter cloacae, IID977, 20 h, Ent. cloacae IID977; 10^6 cells per ml; 37° C., 20 hours; read-out: MIC.
Excerpt: as §1

For experiment [5], the system named is Kl. pneumoniae Y-41. Conditions: Klebsiella pneumoniae, Y41, 10^6 cells per ml, 37° C., 20 hours, read-out: MIC.
Excerpt: as §1

The subject of experiment [6] is Kl. pneumoniae Y-50. Conditions: Klebsiella pneumoniae, Y50, 20 h, 10^6 cells per ml, 37° C., read-out: MIC.
Excerpt: as §1

Experiment [7] concerns Pro. mirabilis T-111. The following applies: Proteus mirabilis, 37° C.
Excerpt: as §1

Experiment [8] deals with Pro. morganii T-216. The following applies: Morganella morganii, T216, 10^6 cells per ml, 37° C., 20 hours, read-out: MIC.
Excerpt: as §1

For experiment [9], the system named is Pro. vulgaris GN3027. The following applies: Proteus vulgaris, GN3027, 20 h, Pro. vulgaris GN3027; 10^6 cells per ml; 37° C., 20 hours; read-out: MIC.
Excerpt: as §1

For experiment [10], the system named is Ps. aeruginosa IFO3445. The following applies: Pseudomonas aeruginosa.
Excerpt: as §1

Experiment [11] relates to Ps. aeruginosa S-68. The following applies: Pseudomonas aeruginosa.
Excerpt: as §1

Experiment [12] concerns E. coli TK-3*. Conditions: Escherichia coli, 20 h, E. coli TK-3, penicillinase-producing; 10^6 cells per ml; read-out: MIC.
Excerpt: as §1
(§2) * Penicillinase-producing bacteria

Experiment [13] deals with Kl. pneumoniae Y-4*. The following applies: Klebsiella pneumoniae, 20 h, Kl. pneumoniae Y-4, penicillinase-producing; 10^6 cells per ml; read-out: MIC.
Excerpt: as §1, §2

For experiment [14], the system named is Ps. aeruginosa GN3379*. Conditions: Pseudomonas aeruginosa, Ps. aeruginosa GN3379, penicillinase-producing, 10^6 cells per ml.
Excerpt: as §1, §2

The subject of experiment [15] is St. aureus F-137*. The following applies: Staphylococcus aureus, 20 h.
Excerpt: as §1, §2

Experiment [16] relates to E. coli GN5482**. The following applies: Escherichia coli, 20 h; E. coli GN5482, cephalospolinase-producing; 10^6 cells per ml; read-out: MIC.
Excerpt: as §1
(§3) ** Cephalospolinase-producing bacteria

For experiment [17], the system named is Pro. vulgaris GN76**. The following applies: Proteus vulgaris.
Excerpt: as §1, §3

The test system of experiment [18] is Ps. aeruginosa GN918**. Conditions: Pseudomonas aeruginosa, Ps. aeruginosa GN918, cephalospolinase-producing, 10^6 cells per ml.
Excerpt: as §1, §3

The test system of experiment [19] is St. aureus FDA209P. Conditions: Staphylococcus aureus, FDA209P, 20 h.
Excerpt: as §1

The mark [20] stands for this setting: Aci. antitratus A-6, 10^6 cells per ml, 37° C., 20 hours, read-out: MIC.
Setting [21] is: E. coli NIHJ JC-2, 10^6 cells per ml, 37° C., 20 hours, read-out: MIC.
The mark [22] stands for this setting: T111, 10^6 cells per ml, 20 hours, read-out: MIC.
Setting [23] is: Ps. aeruginosa IFO3445, 10^6 cells per ml, 37° C., 20 hours, read-out: MIC.
Where [24] appears, read: S68, Ps. aeruginosa S-68, 10^6 cells per ml, 37° C., 20 hours, read-out: MIC.
The mark [25] stands for this setting: St. aureus F-137, penicillinase-producing, 10^6 cells per ml, read-out: MIC.
[26] abbreviates: 20 h, Pro. vulgaris GN76, cephalospolinase-producing, 10^6 cells per ml, read-out: MIC.
Setting [27] is: St. aureus FDA209P, 10^6 cells per ml, 37° C., 20 hours, read-out: MIC.

On to `O=C(O)c1cn(-c2ccc(O)cc2)c(-c2ccc3sccc3c2)cc1=O`, for which the MIC – broadly, the lowest concentration that inhibits growth of the organism – in experiment [1] (setting [20]) was 0.1 µg/mL (≈ 0.275 µM); in experiment [2] (setting [21]), 0.2 µg/mL (≈ 0.55 µM); in [3], at most 0.05 µg/mL; in [4], 0.78 µg/mL (≈ 2.15 µM); in [5] it was 0.78 µg/mL (≈ 2.15 µM); in experiment [6] it was 0.2 µg/mL (≈ 0.55 µM). Besides, the MIC in experiment [7] (setting [22]) is 0.78 µg/mL (≈ 2.15 µM); in experiment [8], 0.39 µg/mL (≈ 1.07 µM); in experiment [9] it was at most 0.05 µg/mL; in [10] (setting [23]) it was 1.56 µg/mL (≈ 4.29 µM); in experiment [11] (setting [24]), 3.13 µg/mL (≈ 8.61 µM); in experiment [12], 0.39 µg/mL (≈ 1.07 µM). Also, the MIC in experiment [13] is 0.78 µg/mL (≈ 2.15 µM); in experiment [14] (20 h, read-out: MIC), 1.56 µg/mL (≈ 4.29 µM); in experiment [15] (setting [25]), 0.39 µg/mL (≈ 1.07 µM); in [16], at most 0.05 µg/mL; in [17] (setting [26]), 0.2 µg/mL (≈ 0.55 µM); in [18] (20 h, read-out: MIC) it was 0.39 µg/mL (≈ 1.07 µM).

In the case of `CN(C)c1ccc(-c2cc(=O)c(C(=O)O)cn2-c2ccc(O)cc2F)cc1`, the MIC in experiment [1] (setting [20]) is 0.1 µg/mL (≈ 0.271 µM); in [2] (setting [21]) it was 0.1 µg/mL (≈ 0.271 µM); in [3], at most 0.05 µg/mL; in experiment [4] it was 0.2 µg/mL (≈ 0.543 µM); in experiment [5] it was 3.13 µg/mL (≈ 8.5 µM); in experiment [6], 0.2 µg/mL (≈ 0.543 µM). For the same compound, the minimum inhibitory concentration (MIC) in experiment [7] (setting [22]) was 0.78 µg/mL (≈ 2.12 µM); in experiment [8], 0.78 µg/mL (≈ 2.12 µM); in experiment [9] it was at most 0.05 µg/mL; in experiment [10] (setting [23]), 1.56 µg/mL (≈ 4.23 µM); in experiment [11] (setting [24]), 0.78 µg/mL (≈ 2.12 µM); in experiment [19] (setting [27]), at most 0.05 µg/mL. In addition, the MIC in experiment [12] was 0.2 µg/mL (≈ 0.543 µM); in experiment [13] it was 0.78 µg/mL (≈ 2.12 µM); in experiment [14] (GN3379, 20 h), 3.13 µg/mL (≈ 8.5 µM); in [15] (setting [25]), at most 0.05 µg/mL; in experiment [16], at most 0.05 µg/mL; in [17] (setting [26]) it was 0.2 µg/mL (≈ 0.543 µM).

As to `O=C(O)c1cn(-c2ccc(O)cc2)c(-c2ccc(-c3ccc(O)cc3)s2)cc1=O`, the MIC in experiment [1] (setting [20]) was 0.78 µg/mL (≈ 1.92 µM); in experiment [2] (setting [21]) it was 0.39 µg/mL (≈ 0.962 µM); in [3], at most 0.05 µg/mL; in experiment [4] it was 1.56 µg/mL (≈ 3.85 µM); in experiment [5], 3.13 µg/mL (≈ 7.72 µM); in [6] it was 0.78 µg/mL (≈ 1.92 µM). The MIC stood at 6.25 µg/mL (≈ 15.4 µM) in [7] (T111, 20 h, 10^6 cells per ml); 1.56 µg/mL (≈ 3.85 µM) in [8]; 0.39 µg/mL (≈ 0.962 µM) in experiment [9]; 3.13 µg/mL (≈ 7.72 µM) in experiment [10] (IFO3445, 20 h); 6.25 µg/mL (≈ 15.4 µM) in experiment [11] (S68, 20 h); 0.1 µg/mL (≈ 0.247 µM) in [19] (setting [27]). Besides, the MIC in experiment [12] was 0.78 µg/mL (≈ 1.92 µM); in [13] it was 6.25 µg/mL (≈ 15.4 µM); in [14] (GN3379, 20 h) it was 3.13 µg/mL (≈ 7.72 µM); in [15] (setting [25]), 0.2 µg/mL (≈ 0.493 µM); in experiment [16], at most 0.05 µg/mL; in [17] (setting [26]) it was 0.78 µg/mL (≈ 1.92 µM).

In the case of `Nc1ccc(-c2cc(=O)c(C(=O)O)cn2-c2ccc(F)cc2)cc1`, the MIC in experiment [1] worked out at 3.13 µg/mL (≈ 9.65 µM); in experiment [2] (setting [21]) it was 0.78 µg/mL (≈ 2.41 µM); in experiment [3] it was 0.39 µg/mL (≈ 1.2 µM); in [4], 1.56 µg/mL (≈ 4.81 µM); in experiment [5], 3.13 µg/mL (≈ 9.65 µM); in experiment [6], 0.39 µg/mL (≈ 1.2 µM). Moreover, the MIC in [7] (T111, 20 h, 10^6 cells per ml) came out at 6.25 µg/mL (≈ 19.3 µM); in experiment [8], 1.56 µg/mL (≈ 4.81 µM); in experiment [9], 0.2 µg/mL (≈ 0.617 µM); in experiment [10] (setting [23]) it was 6.15 µg/mL (≈ 19 µM); in [11] (setting [24]), 12.5 µg/mL (≈ 38.5 µM); in experiment [19] it was 3.13 µg/mL (≈ 9.65 µM). The MIC stood at 0.78 µg/mL (≈ 2.41 µM) in [12]; 6.25 µg/mL (≈ 19.3 µM) in [13]; 25 µg/mL (≈ 77.1 µM) in [14] (20 h, read-out: MIC); 3.13 µg/mL (≈ 9.65 µM) in experiment [15]; 0.2 µg/mL (≈ 0.617 µM) in experiment [16]; 0.78 µg/mL (≈ 2.41 µM) in experiment [17] (setting [26]). In addition, the minimal inhibitory concentration (MIC) in experiment [18] (GN918, 20 h) stood at 3.13 µg/mL (≈ 9.65 µM).

As for `O=C(O)c1cn(-c2ccc(F)cc2)c(-c2ccc(Cl)cc2)cc1=O`, the MIC in experiment [1] was found to be 3.13 µg/mL (≈ 9.11 µM); in experiment [2], 3.13 µg/mL (≈ 9.11 µM); in experiment [3], 1.56 µg/mL (≈ 4.54 µM); in experiment [4], 6.25 µg/mL (≈ 18.2 µM); in experiment [5], 12.5 µg/mL (≈ 36.4 µM); in experiment [6] it was 3.13 µg/mL (≈ 9.11 µM). The MIC in experiment [7] (T111, 20 h, 10^6 cells per ml) is 12.5 µg/mL (≈ 36.4 µM); in [8], 6.25 µg/mL (≈ 18.2 µM); in experiment [9] it was 0.39 µg/mL (≈ 1.13 µM); in experiment [10] (setting [23]), over 100 µg/mL; in [11] (setting [24]), 50 µg/mL (≈ 145 µM); in [19] (setting [27]), 6.25 µg/mL (≈ 18.2 µM). Besides, the MIC in experiment [12] is 6.25 µg/mL (≈ 18.2 µM); in experiment [13], 25 µg/mL (≈ 72.7 µM); in experiment [14] (20 h, read-out: MIC), 50 µg/mL (≈ 145 µM); in experiment [15] (setting [25]) it was 6.25 µg/mL (≈ 18.2 µM); in [16], 0.39 µg/mL (≈ 1.13 µM); in [17] (GN76, 20 h), 3.13 µg/mL (≈ 9.11 µM). The MIC in [18] (20 h, read-out: MIC) was 100 µg/mL (≈ 291 µM).
